Measured values reported in ChEMBL document CHEMBL5236626, “Synthesis and pharmacokinetic properties of novel cPLA2α inhibitors with 1-(carboxyalkylpyrrolyl)-3-aryloxypropan-2-one structure” (Bioorg Med Chem, 2023).
pIC50: −log10 of the molar value. Converted amounts (≈) assume the structure as drawn.

What was measured:
[1] = Partition coefficient,logP of compound by reversed-phase HPLC analysis; assay type: physicochemical; conditions: octanol/water
[2] = Metabolic stability in rat liver S9 fraction assessed as parent compound remaining at 20 uM incubated for 30 mins in presence of NADPH by HPLC-MS analysis; assay type: ADME, subcellular; conditions: read-out: Stability
[3] = Metabolic stability in rat liver S9 fraction assessed as parent compound remaining at 5 uM incubated for 30 mins in presence of UDPGA by HPLC-MS analysis; assay type: ADME, subcellular; conditions: read-out: Stability
[4] = Inhibition of porcine cytosolic phospholipase A2 alpha using SAPC and 2-dioleoyl-sn-glycerol as substrate incubated for 60 mins by HPLC-UV analysis; parameters: species or system Sus scrofa
[5] = Drug concentration in C57Bl/6 mouse plasma at 30 mg/kg,po observed after 2 hrs by HPLC-MS analysis; assay type: ADME, organism-based
[6] = Kinetic solubility of compound in PBS at pH 7.4 incubated for 24 hrs by HPLC-UV analysis; assay type: physicochemical; conditions: read-out: Kinetic_solubility
[7] = Thermodynamic solubility of the compound in PBS at pH 7.4 incubated for 20 hrs by HPLC-UV analysis; assay type: physicochemical; conditions: read-out: Therm_solubility
[8] = Permeability across apical to basolateral side in human Caco-2 cells at 10 uM incubated for 2 hrs by HPLC-MS analysis; assay type: ADME, cell-based; conditions: caco-2, 2 h
Sus scrofa = species on record: Sus scrofa; assay: Inhibition of porcine cytosolic phospholipase A2 alpha using SAPC and 2-dioleoyl-sn-glycerol as substrate at 10 uM incubated for 60 mins by HPLC-UV analysis
[9] = Apparent permeability across apical to basolateral side in human Caco-2 cells at 10 uM incubated for 2 hrs by HPLC-MS analysis; assay type: ADME, cell-based

Compound | logP [1] | remaining at 0.5 h, 20 µM [2] [%] | remaining at 0.5 h, 5 µM [3] [%] | pIC50 [4] | other results
CCCCCCCCc1ccc(OCC(=O)Cn2cc(CCC(=O)O)c(-c3nc(C)no3)c2)cc1 | 5.9 | 34 | > 90 | 9.00 | 
CCCCCCCCc1ccc(OCC(=O)Cn2cc(C(=O)C(C)C)cc2CCC(=O)O)cc1 |  | 60 | > 90 | 6.34 | concentration at 2 h [5]: 220 ng/mL; solubility kinetic at 24 h [6]: ≥ 250 µg/mL; solubility thermodynamic at 20 h [7]: 394 µg/mL (≈ 839 µM); permeability [8]: Impermeable
CCCCCCCCc1ccc(OCC(O)Cn2cc(CCC(=O)O)c(C(=O)C(C)C)c2)cc1 (stereo not drawn) |  |  |  |  | concentration at 2 h [5]: 50 ng/mL; permeability [8]: Permeable
Cc1noc(-c2cn(CC(=O)C(C)Oc3ccc(Oc4ccc(Cl)cc4)cc3)cc2CCC(=O)O)n1 (stereo not drawn) | 3.9 | 21 | > 90 | 7.42 | 
CCCCCCCCc1ccc(OCC(=O)Cn2cc(C(=O)C(C)C)cc2CCCC(=O)O)cc1 |  | 59 | > 90 | 6.19 | 
Cc1noc(-c2cn(CC(=O)C(C)Oc3ccc(Oc4ccc(C(F)(F)F)cc4)cc3)cc2CCC(=O)O)n1 (stereo not drawn) | 4.1 | 30 | > 90 | 7.80 | permeability [8]: Permeable
COc1cccc2c1C(=O)c1c(O)c3c(c(O)c1C2=O)C[C@@](O)(C(C)=O)C[C@@H]3O[C@H]1C[C@H](N)[C@H](O)[C@H](C)O1 [DAUNORUBICIN] |  | 28 | 32 |  | 
CCCCCCCCc1ccc(OCC(=O)C(C)n2cc(CCC(=O)O)c(-c3nc(C)no3)c2)cc1 (stereo not drawn) | 6.1 | 43 | > 90 | 9.00 | 
CCCCCCCCc1ccc(OCC(=O)Cn2c(C)c(CCC(=O)O)c(C(=O)C(C)C)c2C)cc1 |  | 39 | > 90 | < 5.00 | inhibition (Sus scrofa): 45%
CC(C)C(=O)c1cn(CC(=O)COc2ccc(Oc3ccccc3)cc2)c2ccc(C(=O)O)cc12 |  |  |  | 7.92 | 
CCCCCCCCc1ccc(OCC(=O)Cn2cc(C(=O)C(C)C)c3cc(C(=O)O)ccc32)cc1 |  |  |  | 8.00 | 
CCCCCCCCCCOc1ccc(OCC(=O)COc2ccc(C(=O)O)cc2)cc1 |  |  |  | 8.19 | 
CCCCCCCCc1ccc(OCC(=O)Cn2cc(-c3nc(C)no3)c3cc(C(=O)O)ccc32)cc1 |  | 30 | < 5 | 7.82 | 
CCCCCCCCc1ccc(OC(C)C(=O)Cn2cc(CCC(=O)O)c(-c3nc(C)no3)c2)cc1 (stereo not drawn) | 6.5 | 62 | > 90 | 7.89 | solubility kinetic at 24 h [6]: 10 µg/mL (≈ 20.2 µM)
COc1ccc2c(c1)c(CC(=O)O)c(C)n2C(=O)c1ccc(Cl)cc1 [INDOMETHACIN] |  |  |  |  | Papp A→B at 2 h, 10 µM [9]: 18 ×10⁻⁶ cm/s

Further lines, with some results ahead:

logP [1] | remaining at 0.5 h, 20 µM [2] [%] | remaining at 0.5 h, 5 µM [3] [%] | pIC50 [4] | Compound | other results
4 | 34 | > 90 | 6.77 | CC(C)C(=O)c1cn(CC(=O)COc2ccc(-c3ccc(C(F)(F)F)cc3)cc2)cc1CCC(=O)O | 
 | 25 | > 90 | 7.40 | CCCCCCCCc1ccc(OCC(=O)Cn2cc(CC(=O)O)c(C(=O)C(C)C)c2)cc1 | 
6.3 | 54 | > 90 | 7.28 | CCCCCCCCc1ccc(OCC(=O)Cn2cc(CCC(=O)O)c(C(=O)C(C)C)c2)cc1 | solubility kinetic at 24 h [6]: 174 µg/mL (≈ 371 µM)
5.6 | 20 | > 90 | 7.29 | CC(C)C(=O)c1cn(CC(=O)COc2ccc(C34CC5CC(CC(C5)C3)C4)cc2)cc1CCC(=O)O | 
3.3 | 15 | > 90 | 7.49 | Cc1noc(-c2cn(CC(=O)C(C)Oc3ccc(Oc4ccc(F)cc4)cc3)cc2CCC(=O)O)n1 (stereo not drawn) | 
4 | < 5 | > 90 | 7.09 | CC(C)C(=O)c1cn(CC(=O)COc2ccc(Oc3ccc(C(F)(F)F)cc3)cc2)cc1CCC(=O)O | 
 | 25 | > 90 | 6.35 | CCCCCCCCc1ccc(OCC(=O)Cn2cc(CCCC(=O)O)c(C(=O)C(C)C)c2)cc1 | 
3.3 | < 5 | > 90 | 6.51 | CC(C)C(=O)c1cn(CC(=O)COc2ccc3c(ccn3-c3ccc(F)cc3)c2)cc1CCC(=O)O | 
